Measured values taken from patent US9884041B2 (YONSEI […], INC., priority 2010, dated 2018).

How the values were obtained:
C57BL/6J mice [1] = assay: Body weight, food intake and visceral fat-pad weights of mice fed test diets (HFD-induced obesity); type: in vivo; conditions: HFD with 0.05% piperonal, 10 weeks
Description: (§1) The obesity-inducing control diet used in the test was high-fat diet (HFD: 40% fat calorie, 17 g lard+3% corn oil/100 g diet). […] The normal diet (ND) was prepared under AIN-76 rodent diet (American Institute of Nutrition, Report of the American Institute of Nutrition ad hoc committee on standards for nutritional studies. J. Nutr. 107: 1340-1348, 1977) (see Table 1). Piperonal was purchased from Sigma-Aldrich.
(§2) 5-week-old male C57BL/6J mice (Orient, Korea) were accustomed to the laboratory environment for 1 week while feeding solid feed. Then, they were randomly divided into normal diet, high-fat diet and test groups and bred for a total of 10 weeks. The diet was given between 10 and 11 a.m. every day together with water. Food intake was measured every day and body weight was measured once a week. In order to avoid transient body weight increase after feed intake, body weight was measured 2 hours after removing the feed. After fasting the test animal for at least 12 hours and anesthetizing with diethyl ether, blood, liver and visceral fat (epididymal fat, perirenal fat, mesenteric fat and retroperitoneal fat) were taken and weighed after washing with 0.1 M PBS (pH 7.4). Blood taken from the abdominal aorta was centrifuged at 1000×g for 15 minutes for the separation of plasma.
The food efficiency ratio was calculated by dividing the total body weight gain during the experimental period (g) by the total food intake (g) (FIGS. 1 and 2).

C57BL/6J mice [2] = assay: Plasma lipid and glucose levels of mice fed test diets; type: in vivo; conditions: HFD with 0.05% piperonal, 10 weeks
Description: as §1, §2
After 10 weeks of breeding, total cholesterol, HDL-cholesterol, triglyceride and glucose levels in the plasma and lipid levels in the liver tissue were measured as follows. Total cholesterol, HDL-cholesterol, triglyceride, free fatty acid and glucose levels in the plasma were measured twice for each using a commercially available kit (Bio Clinical System). LDL+VLDL cholesterol levels in the blood were calculated by subtracting HDL-cholesterol levels from the total cholesterol levels.

C57BL/6J mice [3] = assay: Liver weights, liver lipid levels and liver function indicators (ALT, AST) of mice fed test diets; type: in vivo; conditions: HFD with 0.05% piperonal, 10 weeks
Description: as §1, §2
Lipids were extracted from the liver tissue according to Folch et al.'s method (Folch J et al., J Biol Chem. 226: 497-509 (1957)). After adding 1 mL of distilled water to 0.25 g of liver tissue, the liver tissue was homogenized using a Polytron homogenizer (IKA-Werke GmbH & Co., Ultra-Turrax, Staufen, Germany). After adding 5 mL of chloroform:methanol solution (2:1, v/v) to the homogenate and mixing well, the mixture was centrifuged at 1000×g for 10 minutes. After adding 2 mL of chloroform:methanol solution (2:1, v/v) again to the supernatant, the same procedure was repeated to completely separate the lipid components of the liver. After adding 3 mL of chloroform:methanol:0.05% CaCl2 (3:48:47, v/v/v) solution to the remaining pellets and mixing well for 1 minute, followed by centrifugation at 1000×g for 10 minutes, the resulting pellets were completely dried with nitrogen gas. The dried lipids were dissolved in 1 mL of methanol and then analyzed.
The same kit (Bio Clinical System) as that used for the plasma analysis was used to measure the triglyceride, cholesterol and free fatty acid levels of the liver tissue.
The activity of ALT (alanine aminotransferase) and AST (aspartate aminotransferase) used as liver function indicator were measured twice for each using a commercially available kit (Bio Clinical System, Korea).

UCP1 = assay: RT-PCR analysis of UCP1 gene expression in mouse visceral fat tissues; type: in vivo, mice; conditions: mRNA by RT-PCR, normalized to GAPDH, to the similar level to the ND group
Source text: (§3) FIG. 7 represents the expression profiles of UCPs genes in the visceral fat tissues of mice. The left panel represents images of RT-PCR analysis results for UCP1 and UCP3, and the right panel represents relative expression levels of these genes. The data were normalized to GAPDH mRNA levels and expressed as relative values to those from ND mouse. The results are represented as mean±SEM (standard error) of values obtained from RNA sample of eight mice with three independent experiments. The characters above the bars indicate significant difference in dietary groups by one-way analysis of variance (ANOVA) test and Duncan's multiple range test (P<0.05).
(§4) After adding 1 mL of Trizol agent per 0.1 g of visceral fat tissues, the mixture was homogenized and centrifuged at 12,000×g for 10 min at 4° C. The supernatant was transferred to a new tube and 200 μl of chloroform was added to the tube, followed by vortexing. The same procedure was repeated twice and then the supernatant was transferred to a new tube, followed by addition of isopropanol and the supernatant at 1:1 ratio. […] The RNA sample concentration was measured at a wavelength of 260 nm and 280 nm using a UV/VIS spectrophotometer (Beckman coulter, DU730) and the integrity of RNA sample was verified by agarose gel electrophoresis. […]

UCP3 = assay: RT-PCR analysis of UCP3 gene expression in mouse visceral fat tissues; type: in vivo, mice; conditions: mRNA by RT-PCR, normalized to GAPDH, to the similar level to the ND group
Source text: as §3, §4

C/EBPα = assay: RT-PCR analysis of C/EBPα gene expression in mouse liver tissues; type: in vivo, mice; conditions: mRNA by RT-PCR, vs HFD, to levels similar for the ND
Source text: (§5) FIG. 8 represents the expression profiles of genes relating to lipogenesis in mice liver tissues. The left panel represents images of RT-PCR analysis results for C/EBPα, PPARγ2 and aP2, and the right panel represents relative expression levels of these genes. The data were normalized to GAPDH mRNA levels and expressed as relative values to those from ND mouse. The results are represented as mean±SEM (standard error) of values obtained from RNA sample of eight mice with three independent experiments. The characters above the bars indicate significant difference in dietary groups by one-way analysis of variance (ANOVA) test and Duncan's multiple range test (P<0.05).
as §4, with “liver” for “visceral fat”

PPARγ2 = assay: RT-PCR analysis of PPARγ2 gene expression in mouse liver tissues; type: in vivo, mice; conditions: mRNA by RT-PCR, vs HFD, to levels similar for the ND
Source text: as §5
as §4, with “liver” for “visceral fat”

aP2 = assay: RT-PCR analysis of aP2 gene expression in mouse liver tissues; type: in vivo, mice; conditions: mRNA by RT-PCR, vs HFD, to levels similar for the ND
Source text: as §5
as §4, with “liver” for “visceral fat”

TNF-α = assay: RT-PCR analysis of TNF-α gene expression in mouse liver tissues; type: in vivo, mice; conditions: mRNA by RT-PCR
Source text: as §5, with “9” for “8”, “inflammation” for “lipogenesis”, “TNFα” for “C/EBPα, PPARγ2”, “IL-6,” for “aP2,”
as §4, with “liver” for “visceral fat”

IL-6 = assay: RT-PCR analysis of IL-6 gene expression in mouse liver tissues; type: in vivo, mice; conditions: mRNA by RT-PCR
Source text: as §5, with “9” for “8”, “inflammation” for “lipogenesis”, “TNFα” for “C/EBPα, PPARγ2”, “IL-6,” for “aP2,”
as §4, with “liver” for “visceral fat”

[4] = tested on: cancinogenesis animal model; conditions: in vivo; cited from earlier work
patients = conditions: sense of smell stimulated through nasal cannula during MRI for cancer diagnosis; cited from earlier work
rats [5] = conditions: cited from earlier work
human = human took 10 g of piperonal; cited from earlier work
rats [6] = conditions: feed containing 0.1% piperonal and 0.5% piperonal, 2 years; cited from earlier work

Structure (SMILES): O=Cc1ccc2c(c1)OCO2 [piperonal, 1,3-benzodioxole-5-carboxaldehyde]
- decrease of body weight gain as compared to HFD (C57BL/6J mice [1]): 19%
- reduced weight of epididymal fat-pad as compared to HFD (C57BL/6J mice [1]): 11%
- reduced weight of mesenteric fat-pad as compared to HFD (C57BL/6J mice [1]): 20%
- reduced weight of perirenal fat-pad as compared to HFD (C57BL/6J mice [1]): 35%
- reduced weight of retroperitoneal fat-pad as compared to HFD (C57BL/6J mice [1]): 8%
- reduction of total visceral fat weight, POD group vs HFD group (C57BL/6J mice [1]; P<0.001): 15%
- daily food intake (C57BL/6J mice [1]; vs HFD): no significant change
- lower atherogenic indices as compared to HFD group (C57BL/6J mice [2]): 17%
- lower plasma level of free fatty acid as compared to HFD group (C57BL/6J mice [2]): 17%
- lower plasma level of total cholesterol as compared to HFD group (C57BL/6J mice [2]): 14%
- lower plasma level of triglyceride as compared to HFD group (C57BL/6J mice [2]): 21%
- reduction of fasting blood sugar level as compared to HFD (C57BL/6J mice [2]): 27%
- lower plasma level of LDL+VLDL cholesterol as compared to HFD group (C57BL/6J mice [2]; total cholesterol minus HDL-cholesterol): 18%
- decrease of absolute organ weight of liver as compared to HFD (C57BL/6J mice [3]): 23%
- decreased level of cholesterol in liver tissue as compared to HFD (C57BL/6J mice [3]): 39%
- decreased level of free fatty acid in liver tissue as compared to HFD (C57BL/6J mice [3]): 27%
- decreased level of triglyceride in liver tissue as compared to HFD (C57BL/6J mice [3]): 13%
- decreased plasma activity of ALT as compared to HFD group (C57BL/6J mice [3]): 27%
- decreased plasma activity of AST as compared to HFD group (C57BL/6J mice [3]): 15%
- HFD-induced decrease in expression of UCP1 gene (UCP1): significantly reversed
- HFD-induced decrease in expression of UCP3 gene (UCP3): significantly reversed
- expression of C/EBPα gene (C/EBPα): significantly decreased
- expression of PPARγ2 gene (PPARγ2): significantly decreased
- expression of aP2 gene (aP2): significantly decreased
- HFD-induced elevation in the expression of TNF-α (TNF-α): significantly reversed
- HFD-induced elevation in the expression of IL-6 (IL-6): significantly reversed
- effect in carcinogenesis animal model [4]: cancer inhibitory effect
- anxiety of patients during MRI (patients): relief from anxiety
- LD50 (rats [5]): more than 2,700 mg/kg
- toxicity in human (human): no toxicity
- toxicity in rats (rats [6]): no toxicity
